Experimental data from patent publication US11690838B2, “Therapeutic agent for fibrosis” (TAIHO PHARMACEUTICAL CO., LTD., priority 2015, dated 2023).

Tested on: Bleomycin-Induced Mouse Pathology (Lung Fibrosis) Model
Test: Suppression effect on bleomycin-induced mouse pathology (lung fibrosis) model
Assay type: in vivo
Conditions: C57BL mice, bleomycin intratracheal, every day for 35 days; for hydroxyproline amount of lung tissues compared to the control group (pathological condition): FIG. 1; for score of abnormal accumulation of a fibrous tissue in lung tissues (Ashcroft's method) compared to the control group: FIG. 2
Experimental: Test Example 1: Suppression Effect on Bleomycin-Induced Mouse Pathology (Lung Fibrosis) Model
Mice (C57BL, 6 weeks old) were anesthetized by intraperitoneally administrating pentobarbital (50 mg/kg/day), and then bleomycin (20 μg/25 μL per mouse) was intra-tracheally sprayed by a sprayer. A week later, the mice were anesthetized by inhalation of isoflurane, 0.2 mL of blood was taken from the eye orbit of the mice. The blood level of a surfactant protein-D (SP-D) was measured. The mice were divided into groups (9 mice) such that the groups have an equal average SP-D value.
The compound of the present invention was orally administered at each of doses of 100 and 200 mg/kg/day, every day for 35 days. In order to confirm whether a pathological model was established, an untreated group (Normal group) and a Sham group were set up. To the mice of the Sham group, physiological saline was intratracheally sprayed in place of bleomycin. The next day after completion of the final administration, the mice were anesthetized by inhalation of isoflurane and euthanized. Thereafter, the lungs were excised out and subjected to pathological analysis for tissues. Abnormal accumulation of a fibrous tissue was evaluated and the amounts of hydroxyproline in the tissues were measured. The abnormal accumulation of a fibrous tissue was evaluated by using Ashcroft's method (J Clin Pathol 1988; 41: 467-470).
The hydroxyproline amounts of lung tissues of individual groups are shown in FIG. 1 and scores of abnormal accumulation of a fibrous tissue in the lung tissues are shown in FIG. 2. […] From this, it was determined that abnormal accumulation of a fibrous tissue in the lung tissue in mice was induced by bleomycin treatment and pathological models are established.

CNC(=O)c1cc2c(Oc3ccc(NC(=S)NC(=O)Cc4ccccc4)cc3F)ccnc2cc1OC [the compound of the present invention, 4-[2-Fluoro-4-[[[(2-phenylacetyl)amino]thioxomethyl]amino]-phenoxy]-7-methoxy-N-methyl-6-quinolinecarboxamide]
significantly low: hydroxyproline amount of lung tissues compared to the control group (pathological condition) (100 mg/kg/day orally) | score of abnormal accumulation of a fibrous tissue in lung tissues (Ashcroft's method) compared to the control group (100 mg/kg/day orally) | hydroxyproline amount of lung tissues compared to the control group (pathological condition) (200 mg/kg/day orally) | score of abnormal accumulation of a fibrous tissue in lung tissues (Ashcroft's method) compared to the control group (200 mg/kg/day orally)
